Results published in patent US20090176817A1, “Method of Treatment of Diarrhea-Predominant Irritable Bowel Syndrome in a Subject” (priority 2005, published 2009).
Marks after values point to notes of the source that are not given here.

Tests used:
[1] = Study S.241.1.109: interaction with ketoconazole 200 mg BID; format: in vivo, human; conditions: for AUC(0-τ) / Cmax / Tmax: steady state; for AUC(0-τ): AUC(0-8); for AUC(0-τ) / Cmax: arith. mean; for Tmax: median
Protocol: In an open-label, randomized, parallel-group study in three groups of 12 healthy, male and female subjects (aged 19 to 45 years), subjects received a 2 mg single dose of cilansetron on Day 1, 2 mg TID on Days 2-13, and a 2 mg single dose on Day 14. […] All morning doses of cilansetron and enzyme inhibitors were administered immediately after a standard breakfast. […] For each treatment group, log-transformed cilansetron AUC(0-τ) and Cmax values on Day 14 (cilansetron+enzyme inhibitor) were compared statistically versus values on Day 7 (cilansetron alone).

[2] = Study S.241.1.110: pharmacokinetics in renal impairment, 2 mg TID; conditions: for AUC(0-τ) / Cmax / T½ / Tmax / Cmin: cilansetron 2 mg TID; for AUC(0-τ) / Cmax / T½ / Cmin: mean (%CV); for Tmax: median; for Cmin: Day 6 morning predose value
[3] = Study S.241.1.107: pharmacokinetics in hepatic impairment, 8 mg TID; conditions: for AUC(0-τ): AUC(0-8); for AUC(0-τ) / Cmax / T½: arith. mean (%CV); for Tmax: median
Protocol: The effect of hepatic impairment on the pharmacokinetics of cilansetron was evaluated in a multiple-dose, parallel group study in 14 healthy and 14 moderately to severely hepatically impaired male and female subjects, aged 41-70 years. Impaired subjects (Child-Pugh score 7 to 11) were matched to healthy subjects by age (±2 years), sex, menstrual status, and smoking history status. All subjects received oral cilansetron 8 mg TID on Days 1 to 5, and a single dose on the morning of Day 6. […] Blood samples were also collected at predose on Day 1, and at predose, 1 hour and 1.5 hours postdose on Day 6, for measurement of cilansetron protein binding in serum.

[4] = Study S.241.1.110: ex vivo protein binding in serum, healthy and renally impaired; conditions: for Fraction unbound ratio All Renal Groups Combined:Healthy / Fraction unbound ratio Mild:Healthy / Fraction unbound ratio Moderate:Healthy / Fraction unbound ratio Severe:Healthy: ratio (90% CI)
Protocol: The ex vivo protein binding of cilansetron and its 4-hydroxy metabolites has been measured in serum samples collected in a multiple-dose study in healthy and renally impaired male and female subjects, aged 33-74 years. […] Healthy subjects were matched to renally-impaired subjects with respect to age, weight, gender, and smoking status. All subjects received oral cilansetron 2 mg TID on Days 1 to 5, and a single dose on the morning of Day 6.

[5] = Cilansetron 2 mg TID + Ketoconazole 200 mg twice daily
[6] = Cilansetron 2 mg TID alone (ketoconazole group)
[7] = cilansetron + ketoconazole / cilansetron alone, ANOVA of log-transformed data
[8] = moderate renal impairment, Day 6
[9] = geometric LS mean ratio impaired/healthy, cilansetron 8 mg TID oral
[10] = healthy, cilansetron 8 mg TID oral
[11] = hepatically impaired, cilansetron 8 mg TID oral

Cc1nccn1CC1CCc2c(c3cccc4c3n2CC[C@H]4O)C1=O (stereo partly drawn) [(4R)-hydroxy cilansetron]
AUC(0-τ) [1, 5]: 20.8 ng·h/mL
Cmax [1, 5]: 5.11 ng/mL
Tmax [1, 5]: 1.50 h
AUC(0-τ) [1, 6]: 12.2 ng·h/mL
Cmax [1, 6]: 2.48 ng/mL
Tmax [1, 6]: 2.00 h
AUC(0-τ) Ratio (Treatment B/A) [1, 7]: 176%
Cmax Ratio (Treatment B/A) [1, 7]: 209%
Plasma Conc. ([2]; Day 6 1 h, Healthy): 3.90 (37) ng/mL
Plasma Conc. ([2]; Day 6 1 h, Mild): 4.86 (39) ng/mL
Plasma Conc. ([2]; Day 6 1 h, Moderate): 3.94 (32) ng/mL
Plasma Conc. ([2]; Day 6 1 h, Severe): 7.67 (38) ng/mL
AUC(0-τ) ratio Mild/Healthy ([2]; Day 6, geometric LS mean ratio (90% CI)): 118 (90, 153) %
AUC(0-τ) ratio Moderate/Healthy ([2]; Day 6, ratio (90% CI)): 137 (104, 182) %
AUC(0-τ) ratio Renal Combined/Healthy ([2]; Day 6, ratio (90% CI)): 166 (136, 204)* %
AUC(0-τ) ratio Severe/Healthy ([2]; Day 6, ratio (90% CI)): 284 (215, 377)* %
Cmax ratio Mild/Healthy ([2]; Day 6, ratio (90% CI)): 134 (101, 177) %
Cmax ratio Moderate/Healthy ([2]; Day 6, ratio (90% CI)): 137 (102, 185) %
Cmax ratio Renal Combined/Healthy ([2]; Day 6, ratio (90% CI)): 158 (127, 196)* %
Cmax ratio Severe/Healthy ([2]; Day 6, ratio (90% CI)): 215 (159, 290)* %
T½ ratio Mild/Healthy ([2]; Day 6, ratio (90% CI)): 109 (84, 142) %
T½ ratio Moderate/Healthy ([2]; Day 6, ratio (90% CI)): 129 (97, 171) %
T½ ratio Renal Combined/Healthy ([2]; Day 6, ratio (90% CI)): 140 (114, 172)* %
T½ ratio Severe/Healthy ([2]; Day 6, ratio (90% CI)): 195 (147, 259)* %
Plasma Conc. ([2]; Day 6 […], Healthy): 3.79 (20) ng/mL
Plasma Conc. ([2]; Day 6 […], Mild): 3.86 (20) ng/mL
Plasma Conc. ([2]; Day 6 […], Moderate): 4.75 (28) ng/mL
Plasma Conc. ([2]; Day 6 […], Severe): 7.87 (38) ng/mL
AUC(0-τ) ([2]; healthy subjects, Day 6): 18.7 (21) ng · h/mL
Cmax ([2]; healthy subjects, Day 6): 4.30 (33) ng/mL
T½ ([2]; healthy subjects, Day 6): 7.05 (21) h
Tmax ([2]; healthy subjects, Day 6): 1.25 h
Cmin ([2]; healthy subjects): 1.56 (24) ng/mL
Exposure increase with severe renal impairment ([2]; in vivo): 2-3 fold
Mean AUC(0-τ) increase vs healthy ([2]; mild impairment): 18%
Mean Cmax increase vs healthy ([2]; mild impairment): 34%
AUC(0-τ) ([2]; mild renal impairment, Day 6): 21.6 (9) ng · h/mL
Cmax ([2]; mild renal impairment, Day 6): 5.66 (25) ng/mL
T½ ([2]; mild renal impairment, Day 6): 7.93 (38) h
Tmax ([2]; mild renal impairment, Day 6): 1.25 h
Cmin ([2]; mild renal impairment): 1.68 (24) ng/mL
Mean AUC(0-τ) increase vs healthy ([2]; moderate impairment): 37%
Mean Cmax increase vs healthy ([2]; moderate impairment): 37%
AUC(0-τ) [2, 8]: 26.3 (34) ng · h/mL
Cmax [2, 8]: 5.83 (28) ng/mL
T½ [2, 8]: 9.32 (36) h
Tmax [2, 8]: 1.25 h
Cmin ([2]; moderate renal impairment): 2.06 (40) ng/mL
Mean AUC(0-τ) increase vs healthy ([2]; severe impairment): 184%
Mean Cmax increase vs healthy ([2]; severe impairment): 115%
AUC(0-τ) ([2]; severe renal impairment, Day 6): 55.8 (45) ng · h/mL
Cmax ([2]; severe renal impairment, Day 6): 9.35 (39) ng/mL
T½ ([2]; severe renal impairment, Day 6): 13.9 (30) h
Tmax ([2]; severe renal impairment, Day 6): 1.50 h
Cmin ([2]; severe renal impairment): 4.36 (36) ng/mL
AUC(0-τ) Ratio [3, 9]: 0.86
Cmax Ratio [3, 9]: 0.70
AUC(0-τ), Geom. LS Mean [3, 10]: 57.4 ng·h/mL
Cmax, Geom. LS Mean [3, 10]: 13.2 ng/mL
AUC(0-τ) [3, 10]: 62.7 (32) ng · h/mL
Cmax [3, 10]: 14.1 (28) ng/mL
T½ [3, 10]: 6.38 (18) h
Tmax [3, 10]: 1.00 h
AUC(0-τ), Geom. LS Mean [3, 11]: 49.4 ng·h/mL
Cmax, Geom. LS Mean [3, 11]: 9.30 ng/mL
AUC(0-τ) [3, 11]: 53.7 (40) ng · h/mL
Cmax [3, 11]: 11.1 (62) ng/mL
T½ [3, 11]: 10.0 (41) h
Tmax [3, 11]: 1.50 h
AUC(0-τ) decrease with hepatic impairment ([3]; in vivo): 14%
Cmax decrease with hepatic impairment ([3]; in vivo): 30%
Fraction unbound ratio All Renal Groups Combined:Healthy ([4]; 1 h): 121 (109, 134)^b %
Fraction unbound ratio Mild:Healthy ([4]; 1 h): 106 (93, 121) %
Fraction unbound ratio Moderate:Healthy ([4]; 1 h): 137 (119, 157)^b %
Fraction unbound ratio Severe:Healthy ([4]; 1 h): 121 (105, 140)^b %
Fraction Unbound in Serum ([4]; Day 6 1 h, Healthy): 24.7 (7) %
Fraction Unbound in Serum ([4]; Day 6 1 h, Mild): 26.4 (14) %
Fraction Unbound in Serum ([4]; Day 6 1 h, Moderate): 34.3 (22) %
Fraction Unbound in Serum ([4]; Day 6 1 h, Severe): 30.2 (18) %
Fraction Unbound in Serum ([4]; Day 6 […], Healthy): 27.6 (15) %
Fraction Unbound in Serum ([4]; Day 6 […], Mild): 26.2 (17) %
Fraction Unbound in Serum ([4]; Day 6 […], Moderate): 28.5 (13) %
Fraction Unbound in Serum ([4]; Day 6 […], Severe): 23.7 (11) %
Fraction Unbound in Serum ([4]; Day 6 predose, Healthy): 25.3 (11) %
Fraction Unbound in Serum ([4]; Day 6 predose, Mild): 29.6 (30) %
Fraction Unbound in Serum ([4]; Day 6 predose, Moderate): 31.0 (21) %
Fraction Unbound in Serum ([4]; Day 6 predose, Severe): 32.4 (17) %
Fraction unbound ratio All Renal Groups Combined:Healthy ([4]; […]): 95 (85, 105) %
Fraction unbound ratio Mild:Healthy ([4]; […]): 95 (83, 109) %
Fraction unbound ratio Moderate:Healthy ([4]; […]): 104 (90, 120) %
Fraction unbound ratio Severe:Healthy ([4]; […]): 86 (74, 100) %
Protein bound on average ([4]; healthy subjects): 72.4-75.3%
Fraction unbound ratio All Renal Groups Combined:Healthy ([4]; predose): 121 (105, 139)^b %
Fraction unbound ratio Mild:Healthy ([4]; predose): 114 (96, 137) %
Fraction unbound ratio Moderate:Healthy ([4]; predose): 122 (100, 147) %
Fraction unbound ratio Severe:Healthy ([4]; predose): 128 (105, 155)^b %
Plasma protein bound ([4]; therapeutic concentration range): 72-75%
